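Interpolation was linear, between the two tested concentrations surrounding the appropriate level; five concentrations were tested over 48 hours in 96-well plates. Here, GI50 denotes the concentration required for 50% inhibition of growth. TGI: total growth inhibition.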 A value given as a limit tells only on which side of the number the result lay.

The first assay concerns SF-268 CNS. Nature of the assay: NCI anticancer screen, dose series, 48 h.
As to `COc1cc2c3c(n(C)c(=O)c2cc1OC)-c1cc2c(cc1/C3=C\CCN)OCO2`, the GI50 was 0.167 µM and the TGI is 16.6 µM.

The subject of the next assay is DU-145 prostate. Briefly: NCI anticancer screen, dose series, 48 h.
As to `CN(C(=O)c1ccc(C(F)(F)F)cc1)c1ccc(Oc2ccc3c(c2)cc(C(=O)N2CCN(Cc4ccc(OC(F)F)cc4)CC2)n3C)nc1`, the GI50 was over 100 µM and the TGI was over 100 µM.
For the compound `Nc1ncnc2c1nnn2C1OC(CO)C(O)C1O` (stereo not drawn), the GI50 was 0.144 µM and the TGI was determined as 1.91 µM.
The compound `NC1(C(=O)OCc2ccccc2)CCCC1` showed a TGI of 37.5 µM.
Consider `O=C(/C=C/c1ccc(Cl)cc1)c1ccc(Nc2ccnc3cc(Cl)ccc23)cc1`, for which the GI50 is 27.6 µM and the TGI is over 100 µM.
`COc1cc(C2c3cc4c(cc3OC(C)(O)C2C)OCO4)cc(OC)c1OC` (stereo not drawn): the TGI was over 100 µM.
Take `COc1cc2c(c(OC)c1OC)-c1ccc(OC)c(=O)cc1C(NC(=O)c1ccc(N=[N+]=[N-])cc1)CC2` (stereo not drawn): the TGI was 0.439 µM.
`C=C1C(=O)O[C@H]2[C@H]1CC/C(COC(=O)c1c[nH]c3ccccc13)=C\CC[C@@]1(C)O[C@@H]21`: the GI50 was 0.383 µM and the TGI was found to be 1.4 µM.
`CC(=O)[C@@]12O[C@@H]1CC1C3CCC4=CC(O)CCC4(C)C3CCC12C` (stereo partly drawn): the GI50 was 15 µM and the TGI stood at 31.8 µM.
Turning to `C=C(Br)C(C)(Br)CCC(Br)C(C)(C)Cl` (stereo not drawn), the TGI stood at 43.1 µM.
`Cc1ccccc1S(=O)(=O)OC1NS(=O)(=O)c2ccccc21` (stereo not drawn) gave a TGI of over 100 µM.
Turning to `COc1cc2c3c(n(C)c(=O)c2cc1OC)-c1cc2c(cc1/C3=C\CCCN)OCO2`, the GI50 was 5.57 µM and the TGI was determined as 54.1 µM.
With `COc1ccc(-c2nnc(COc3ccc(NC(=O)Nc4cc(C(F)(F)F)cc(C(F)(F)F)c4)cc3F)o2)cc1`, the GI50 is 2.15 µM and the TGI is 4.84 µM.
As to `COc1cc(/C=C/c2cc(O)c(C(C)=O)c(O)c2)cc2c1O[C@]1(C)CC[C@@H](O)C(C)(C)[C@H]1C2`, the GI50 is 16.6 µM and the TGI is over 100 µM.
Compound `OC(c1nc2ccccc2[nH]1)C(O)C(O)C(O)c1nc2ccccc2[nH]1` (stereo not drawn) had a TGI of over 100 µM.
In the case of `Cc1cc(O)c(/C=N/C(=S)NCc2ccccc2)c(=O)o1`, the TGI is over 100 µM.
`COc1cc2c3c(n(C)c(=O)c2cc1OC)-c1cc2c(cc1/C3=C\CCN)OCO2`: the GI50 is 0.362 µM and the TGI is 11.4 µM.

For the next assay, the system named is NCI-H23 lung. Briefly: NCI anticancer screen, dose series, 48 h.
For the compound `CN(C(=O)c1ccc(C(F)(F)F)cc1)c1ccc(Oc2ccc3c(c2)cc(C(=O)N2CCN(Cc4ccc(OC(F)F)cc4)CC2)n3C)nc1`, the GI50 is under 0.01 µM and the TGI was over 100 µM.
For the compound `Cc1cc(-c2ccc3nc(C4CCOCC4)n(CCOC(F)(F)F)c3c2)cn(C)c1=O`, the GI50 is 0.518 µM and the TGI was determined as 12.8 µM.
`Nc1ncnc2c1nnn2C1OC(CO)C(O)C1O` (stereo not drawn) showed a TGI of 10.8 µM.
Consider `NC1(C(=O)OCc2ccccc2)CCCC1`, for which the TGI was found to be 43.6 µM.
For `O=C(/C=C/c1ccc(Cl)cc1)c1ccc(Nc2ccnc3cc(Cl)ccc23)cc1`, the GI50 was over 100 µM and the TGI was over 100 µM.
Compound `COc1cc(C2c3cc4c(cc3OC(C)(O)C2C)OCO4)cc(OC)c1OC` (stereo not drawn) returned a TGI of over 100 µM.
In turn, `COc1cc2c(c(OC)c1OC)-c1ccc(OC)c(=O)cc1C(NC(=O)c1ccc(N=[N+]=[N-])cc1)CC2` (stereo not drawn) came in with a TGI of over 100 µM.
In the case of `C=C1C(=O)O[C@H]2[C@H]1CC/C(COC(=O)c1c[nH]c3ccccc13)=C\CC[C@@]1(C)O[C@@H]21`, the GI50 is 1.29 µM and the TGI came to 3.76 µM.
Take `CC(=O)[C@@]12O[C@@H]1CC1C3CCC4=CC(O)CCC4(C)C3CCC12C` (stereo partly drawn): the GI50 was 55.8 µM and the TGI was over 100 µM.
Take `CCN1CCN(c2nc(C)cc(N(CCNc3ccnc4cc(Cl)ccc34)Cc3ccc4c(c3)OCO4)n2)CC1`: the GI50 was 3.44 µM and the TGI came out at 14.2 µM.
The compound `C=C(Br)C(C)(Br)CCC(Br)C(C)(C)Cl` (stereo not drawn) came in with a TGI of 36.5 µM.
Turning to `Cc1ccccc1S(=O)(=O)OC1NS(=O)(=O)c2ccccc21` (stereo not drawn), the TGI was over 100 µM.
As for `COc1cc2c3c(n(C)c(=O)c2cc1OC)-c1cc2c(cc1/C3=C\CCCN)OCO2`, the GI50 is 8.07 µM and the TGI is over 100 µM.
As for `COc1ccc(-c2nnc(COc3ccc(NC(=O)Nc4cc(C(F)(F)F)cc(C(F)(F)F)c4)cc3F)o2)cc1`, the GI50 is 1.8 µM and the TGI came to 4.38 µM.
Take `COc1cc(/C=C/c2cc(O)c(C(C)=O)c(O)c2)cc2c1O[C@]1(C)CC[C@@H](O)C(C)(C)[C@H]1C2`: the GI50 was 10.7 µM and the TGI came to 34.5 µM.
`Cc1cc(O)c(/C=N/C(=S)NCc2ccccc2)c(=O)o1`: the TGI was over 100 µM.
As to `O=C(CSc1ccc(Cl)cc1)Nc1ccc(-c2nc3ccccc3s2)c(Cl)c1`, the GI50 was 2.23 µM and the TGI worked out at 5.56 µM.

Another assay deals with SK-MEL-2 melanoma. Briefly: NCI anticancer screen, dose series, 48 h.
For `CN(C(=O)c1ccc(C(F)(F)F)cc1)c1ccc(Oc2ccc3c(c2)cc(C(=O)N2CCN(Cc4ccc(OC(F)F)cc4)CC2)n3C)nc1`, the GI50 is 11.9 µM and the TGI is over 100 µM.
In the same order, the values of `Cc1cc(-c2ccc3nc(C4CCOCC4)n(CCOC(F)(F)F)c3c2)cn(C)c1=O` are 0.988 µM and 15.5 µM.
The compound `Nc1ncnc2c1nnn2C1OC(CO)C(O)C1O` (stereo not drawn) returned a TGI of 1.74 µM.
Consider `NC1(C(=O)OCc2ccccc2)CCCC1`, for which the TGI came to 40.2 µM.
On to `O=C(/C=C/c1ccc(Cl)cc1)c1ccc(Nc2ccnc3cc(Cl)ccc23)cc1`, for which the GI50 was over 100 µM and the TGI was over 100 µM.
With `C=C1C(=O)O[C@H]2[C@H]1CC/C(COC(=O)c1c[nH]c3ccccc13)=C\CC[C@@]1(C)O[C@@H]21`, the GI50 was 0.239 µM and the TGI was 0.612 µM.
In the same order, the values of `CC(=O)[C@@]12O[C@@H]1CC1C3CCC4=CC(O)CCC4(C)C3CCC12C` (stereo partly drawn) are over 100 µM and over 100 µM.
For the compound `CCN1CCN(c2nc(C)cc(N(CCNc3ccnc4cc(Cl)ccc34)Cc3ccc4c(c3)OCO4)n2)CC1`, the GI50 is 1.98 µM and the TGI turned out to be 3.85 µM.

Source of the values: PubChem BioAssay (NCI).
